Experiments:
Assay type in all cases: in vivo
transplanted rice = assay: Test Example 1: preemergence treatment under submerged conditions, effect on crop; conditions: dose 2.52 g/a
Summary of the method: (§1)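 Scoring 0 (<5% mortality) to 5 (≥90%) was done three weeks after preemergence application to the water surface of submerged (4 cm) alluvial soil, doses given as g per are. Weeds were seeded and 2.5-leaf rice transplanted on the treatment day; greenhouse at 25–30 °C.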

barnyardgrass [1] = assay: Test Example 1: herbicidal effects in preemergence treatment under submerged conditions; conditions: dose 2.52 g/a
Summary of the method: as §1

bulrush [2] = assay: as above; conditions: dose 2.52 g/a
Summary of the method: as §1

ducksalad [3] = assay: as above; conditions: dose 2.52 g/a
Summary of the method: as §1

barnyardgrass [4] = assay: Test Example 2: herbicidal effects during the vegetation period under submerged conditions; conditions: treatment during the vegetation period under submerged conditions; dose 2.52 g/a
Summary of the method: (§2)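 Barnyardgrass, bulrush and ducksalad were co-sown in alluvial soil flooded to 4 cm and grown in a greenhouse at 25 to 30° C. At the 1- or 2-leaf stage, water-diluted emulsifiable concentrates went onto the water surface at set doses (g/a). Herbicidal effect was scored three weeks later on a graded scale.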

bulrush [5] = assay: as above; conditions: treatment during the vegetation period under submerged conditions; dose 2.52 g/a
Summary of the method: as §2

ducksalad [6] = assay: as above; conditions: treatment during the vegetation period under submerged conditions; dose 2.52 g/a
Summary of the method: as §2

barnyardgrass [7] = assay: Test Example 4: herbicidal effect in foliage treatment; conditions: three weeks after application
Summary of the method: (§3)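 Seeds sown in sterilized diluvial soil under ~1.5 cm soil cover and grown 14 days in a greenhouse at 25 to 30° C. Emulsifiable concentrates diluted with water were then sprayed uniformly on foliage at predetermined doses (g/a). Herbicidal effect was scored three weeks after application on a graded evaluation scale.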

velvetleaf [8] = assay: as above; conditions: three weeks after application
Summary of the method: as §3

redroot pigweed [9] = assay: as above; conditions: three weeks after application
Summary of the method: as §3

common chickweed [10] = assay: as above; conditions: three weeks after application
Summary of the method: as §3

common lambsquater [11] = assay: as above; conditions: three weeks after application
Summary of the method: as §3

wild oat [12] = assay: as above; conditions: three weeks after application
Summary of the method: as §3

common ragweed [13] = assay: as above; conditions: three weeks after application
Summary of the method: as §3

beadstraw [14] = assay: as above; conditions: three weeks after application
Summary of the method: as §3

large crabgrass [15] = assay: as above; conditions: three weeks after application
Summary of the method: as §3

water foxtail [16] = assay: as above; conditions: three weeks after application
Summary of the method: as §3

giant foxtail [17] = assay: as above; conditions: three weeks after application
Summary of the method: as §3

Italian ryegrass [18] = assay: as above; conditions: three weeks after application
Summary of the method: as §3

posumbu knotweed [19] = assay: as above; conditions: three weeks after application
Summary of the method: as §3

barnyardgrass [20] = assay: Test Example 3: herbicidal effects in soil treatment
Summary of the method: (§4)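 Seeds were sown in sterilized diluvial soil and covered with about 1.5 cm of soil. Compounds, formulated as emulsifiable concentrates and diluted with water, were sprayed evenly over the soil surface at set doses in g/a. Herbicidal effect was scored on a rating scale three weeks later.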

velvetleaf [21] = assay: as above
Summary of the method: as §4

redroot pigweed [22] = assay: as above
Summary of the method: as §4

common chickweed [23] = assay: as above
Summary of the method: as §4

common lambsquater [24] = assay: as above
Summary of the method: as §4

wild oat [25] = assay: as above
Summary of the method: as §4

common ragweed [26] = assay: as above
Summary of the method: as §4

beadstraw [27] = assay: as above
Summary of the method: as §4

large crabgrass [28] = assay: as above
Summary of the method: as §4

water foxtail [29] = assay: as above
Summary of the method: as §4

giant foxtail [30] = assay: as above
Summary of the method: as §4

Italian ryegrass [31] = assay: as above
Summary of the method: as §4

posumbu knotweed [32] = assay: as above
Summary of the method: as §4

CC(C)COC(=O)N(c1ccccc1CN1CC(C)OCC1=O)S(=O)(=O)C(F)(F)F (centres unmarked) [Compound I-9]
a: transplanted rice, effect on crop (evaluation scale 0-5) (transplanted rice): 0 (mortality of less than 5% (almost ineffective)) | A: barnyardgrass, herbicidal effect (evaluation scale 0-5) (barnyardgrass [1]): 5 (mortality of 90% or above (nearly complete death)) | B: bulrush, herbicidal effect (evaluation scale 0-5) (bulrush [2]): 5 (mortality of 90% or above (nearly complete death)) | C: ducksalad, herbicidal effect (evaluation scale 0-5) (ducksalad [3]): 5 (mortality of 90% or above (nearly complete death)) | A: barnyardgrass, herbicidal effect (evaluation scale 0-5) (barnyardgrass [4]): 5 (mortality of 90% or above (nearly complete death)) | B: bulrush, herbicidal effect (evaluation scale 0-5) (bulrush [5]): 5 (mortality of 90% or above (nearly complete death)) | C: ducksalad, herbicidal effect (evaluation scale 0-5) (ducksalad [6]): 5 (mortality of 90% or above (nearly complete death)) | A: barnyardgrass, herbicidal effect (barnyardgrass [7]; dose 3.2 g/a): 5 (mortality of 90% or above (nearly complete death)) | I: velvetleaf, herbicidal effect (velvetleaf [8]; dose 3.2 g/a): 5 (mortality of 90% or above (nearly complete death)) | K: redroot pigweed, herbicidal effect (redroot pigweed [9]; dose 3.2 g/a): 2 (mortality of at least 20% and less than 40%) | N: common chickweed, herbicidal effect (common chickweed [10]; dose 3.2 g/a): 3 (mortality of at least 40% and less than 70%) | L: common lambsquater, herbicidal effect (common lambsquater [11]; dose 3.2 g/a): 0 (mortality of less than 5% (almost ineffective)) | F: wild oat, herbicidal effect (wild oat [12]; dose 3.2 g/a): 0 (mortality of less than 5% (almost ineffective)) | J: common ragweed, herbicidal effect (common ragweed [13]; dose 3.2 g/a): 4 (mortality of at least 70% and less than 90%) | O: beadstraw, herbicidal effect (beadstraw [14]; dose 3.2 g/a): 4 (mortality of at least 70% and less than 90%) | D: large crabgrass, herbicidal effect (large crabgrass [15]; dose 3.2 g/a): 5 (mortality of 90% or above (nearly complete death)) | G: water foxtail, herbicidal effect (water foxtail [16]; dose 3.2 g/a): 5 (mortality of 90% or above (nearly complete death)) | E: giant foxtail, herbicidal effect (giant foxtail [17]; dose 3.2 g/a): 3 (mortality of at least 40% and less than 70%) | H: Italian ryegrass, herbicidal effect (Italian ryegrass [18]; dose 3.2 g/a): 3 (mortality of at least 40% and less than 70%) | M: posumbu knotweed, herbicidal effect (posumbu knotweed [19]; dose 3.2 g/a): 0 (mortality of less than 5% (almost ineffective)) | A: barnyardgrass, herbicidal effect (evaluation scale 0-5) (barnyardgrass [20]; dose 3.2 g/a): 5 (mortality of 90% or above (nearly complete death)) | I: velvetleaf, herbicidal effect (evaluation scale 0-5) (velvetleaf [21]; dose 3.2 g/a): 5 (mortality of 90% or above (nearly complete death)) | K: redroot pigweed, herbicidal effect (evaluation scale 0-5) (redroot pigweed [22]; dose 3.2 g/a): 4 (mortality of at least 70% and less than 90%) | N: common chickweed, herbicidal effect (evaluation scale 0-5) (common chickweed [23]; dose 3.2 g/a): 5 (mortality of 90% or above (nearly complete death)) | L: common lambsquater, herbicidal effect (evaluation scale 0-5) (common lambsquater [24]; dose 3.2 g/a): 0 (mortality of less than 5% (almost ineffective)) | F: wild oat, herbicidal effect (evaluation scale 0-5) (wild oat [25]; dose 3.2 g/a): 3 (mortality of at least 40% and less than 70%) | J: common ragweed, herbicidal effect (evaluation scale 0-5) (common ragweed [26]; dose 3.2 g/a): 5 (mortality of 90% or above (nearly complete death)) | O: beadstraw, herbicidal effect (evaluation scale 0-5) (beadstraw [27]; dose 3.2 g/a): 4 (mortality of at least 70% and less than 90%) | D: large crabgrass, herbicidal effect (evaluation scale 0-5) (large crabgrass [28]; dose 3.2 g/a): 5 (mortality of 90% or above (nearly complete death)) | G: water foxtail, herbicidal effect (evaluation scale 0-5) (water foxtail [29]; dose 3.2 g/a): 5 (mortality of 90% or above (nearly complete death)) | E: giant foxtail, herbicidal effect (evaluation scale 0-5) (giant foxtail [30]; dose 3.2 g/a): 4 (mortality of at least 70% and less than 90%) | H: Italian ryegrass, herbicidal effect (evaluation scale 0-5) (Italian ryegrass [31]; dose 3.2 g/a): 3 (mortality of at least 40% and less than 70%) | M: posumbu knotweed, herbicidal effect (evaluation scale 0-5) (posumbu knotweed [32]; dose 3.2 g/a): 0 (mortality of less than 5% (almost ineffective))

CCOC(=O)N(c1ccccc1CN1CCSCC1=O)S(=O)(=O)C(F)(F)F [Compound I-18, 4-[2-(N-ethoxycarbonyl-N-trifluoromethanesulfonyl)aminobenzyl]-1,4-thiazinan-3-one]
a: transplanted rice, effect on crop (evaluation scale 0-5) (transplanted rice): 0 (mortality of less than 5% (almost ineffective)) | A: barnyardgrass, herbicidal effect (evaluation scale 0-5) (barnyardgrass [1]): 5 (mortality of 90% or above (nearly complete death)) | B: bulrush, herbicidal effect (evaluation scale 0-5) (bulrush [2]): 5 (mortality of 90% or above (nearly complete death)) | C: ducksalad, herbicidal effect (evaluation scale 0-5) (ducksalad [3]): 5 (mortality of 90% or above (nearly complete death)) | B: bulrush, herbicidal effect (evaluation scale 0-5) (bulrush [5]): 5 (mortality of 90% or above (nearly complete death)) | C: ducksalad, herbicidal effect (evaluation scale 0-5) (ducksalad [6]): 4 (mortality of at least 70% and less than 90%) | A: barnyardgrass, herbicidal effect (barnyardgrass [7]; dose 6.3 g/a): 5 (mortality of 90% or above (nearly complete death)) | I: velvetleaf, herbicidal effect (velvetleaf [8]; dose 6.3 g/a): 4 (mortality of at least 70% and less than 90%) | K: redroot pigweed, herbicidal effect (redroot pigweed [9]; dose 6.3 g/a): 4 (mortality of at least 70% and less than 90%) | N: common chickweed, herbicidal effect (common chickweed [10]; dose 6.3 g/a): 4 (mortality of at least 70% and less than 90%) | L: common lambsquater, herbicidal effect (common lambsquater [11]; dose 6.3 g/a): 4 (mortality of at least 70% and less than 90%) | F: wild oat, herbicidal effect (wild oat [12]; dose 6.3 g/a): 3 (mortality of at least 40% and less than 70%) | J: common ragweed, herbicidal effect (common ragweed [13]; dose 6.3 g/a): 3 (mortality of at least 40% and less than 70%) | O: beadstraw, herbicidal effect (beadstraw [14]; dose 6.3 g/a): 4 (mortality of at least 70% and less than 90%) | D: large crabgrass, herbicidal effect (large crabgrass [15]; dose 6.3 g/a): 4 (mortality of at least 70% and less than 90%) | G: water foxtail, herbicidal effect (water foxtail [16]; dose 6.3 g/a): 5 (mortality of 90% or above (nearly complete death)) | E: giant foxtail, herbicidal effect (giant foxtail [17]; dose 6.3 g/a): 4 (mortality of at least 70% and less than 90%) | H: Italian ryegrass, herbicidal effect (Italian ryegrass [18]; dose 6.3 g/a): 4 (mortality of at least 70% and less than 90%) | M: posumbu knotweed, herbicidal effect (posumbu knotweed [19]; dose 6.3 g/a): 3 (mortality of at least 40% and less than 70%) | A: barnyardgrass, herbicidal effect (evaluation scale 0-5) (barnyardgrass [20]; dose 6.3 g/a): 5 (mortality of 90% or above (nearly complete death)) | I: velvetleaf, herbicidal effect (evaluation scale 0-5) (velvetleaf [21]; dose 6.3 g/a): 1 (mortality of at least 5% and less than 20%) | K: redroot pigweed, herbicidal effect (evaluation scale 0-5) (redroot pigweed [22]; dose 6.3 g/a): 4 (mortality of at least 70% and less than 90%) | N: common chickweed, herbicidal effect (evaluation scale 0-5) (common chickweed [23]; dose 6.3 g/a): 4 (mortality of at least 70% and less than 90%) | L: common lambsquater, herbicidal effect (evaluation scale 0-5) (common lambsquater [24]; dose 6.3 g/a): 5 (mortality of 90% or above (nearly complete death)) | F: wild oat, herbicidal effect (evaluation scale 0-5) (wild oat [25]; dose 6.3 g/a): 0 (mortality of less than 5% (almost ineffective)) | J: common ragweed, herbicidal effect (evaluation scale 0-5) (common ragweed [26]; dose 6.3 g/a): 4 (mortality of at least 70% and less than 90%) | O: beadstraw, herbicidal effect (evaluation scale 0-5) (beadstraw [27]; dose 6.3 g/a): 3 (mortality of at least 40% and less than 70%) | D: large crabgrass, herbicidal effect (evaluation scale 0-5) (large crabgrass [28]; dose 6.3 g/a): 4 (mortality of at least 70% and less than 90%) | G: water foxtail, herbicidal effect (evaluation scale 0-5) (water foxtail [29]; dose 6.3 g/a): 5 (mortality of 90% or above (nearly complete death)) | E: giant foxtail, herbicidal effect (evaluation scale 0-5) (giant foxtail [30]; dose 6.3 g/a): 5 (mortality of 90% or above (nearly complete death)) | H: Italian ryegrass, herbicidal effect (evaluation scale 0-5) (Italian ryegrass [31]; dose 6.3 g/a): 4 (mortality of at least 70% and less than 90%) | M: posumbu knotweed, herbicidal effect (evaluation scale 0-5) (posumbu knotweed [32]; dose 6.3 g/a): 3 (mortality of at least 40% and less than 70%)

Reference: US20120029187A1, “HALOALKYLSULFONANILIDE DERIVATIVE” (Nissan Chemical Industries, Ltd., priority 2009, published 2012)
